Read-outs that look alike come from different tables or passages of the source. Marks after values point to notes of the source that are not given here.
Key:
[1] = cited from earlier work; for Photobleaching quantum yields: in water, low light intensities (up to 10^3 W/cm^2)
[2] = Spectral properties of the fluorinated rhodamines (absorption, emission, quantum yield, lifetime); format: physicochemical
Description: Extinction coefficients (of the long wavelength maximum) which are lower than ca. 8×10^4 M^−1 cm^−1 indicate the presence of the closed non-fluorescent form.

[3] = system: living mammalian cells (PtK2); experiment: Membrane-permeation experiments in living cells, epifluorescence microscope; format: cell-based; conditions: 15 minutes
Protocol: FIG. 9. Membrane-permeation experiments of the presented dyes. Living mammalian cells (PtK2) were incubated for 15 minutes with a 50 μg dye/ml solution. The subcellular localization of the dye was imaged in an epifluorescence microscope. A: 46-H—CH2 CF3—H—H (16); B: 42-COOH (15); C: 23; D: 37-Me-Me-H (27); E: 42-H (14)-methylester; F: 33-H—H (18).
The most important prerequisite for fluorophores used in these labeling strategies is that sufficient amounts of it need to pass cellular membrane(s) to reach the target protein. In order to asses the permeability of the cell membrane to the fluorescent dyes described in the presented invention, living mammalian cells (PtK2) previously grown overnight on cover slips, were first subjected to either 500 μg dye/ml or 50 μg dye/ml in growth medium for 15 minutes. (The amount of dye used for labeling of SNAP-fusion proteins is below 5 μg dye/ml.) Then, the cells were washed with growth medium (without dye) for 15 minutes, and imaged using an epifluorescence microscope.

[4] = Photoresistance in aqueous solutions irradiated with 488 nm light (3 W/cm^2); format: physicochemical; conditions: for change in emission on irradiation: colored water solutions, several hours, 488 nm line of an Argon laser
Description: The compounds also display an outstanding photostability when irradiated for a prolonged time. […] The initial absorption at the irradiation wavelength was the same for all solutions. […] After two hours of irradiation, compounds 14 and 15 retain more than 50% of the initial emission intensity and compound 14a has about 90% of the initial signal left.
FIG. 2. Photoresistance of selected compounds (14-17, 14a, and 16a in Table 2), and some commercially available fluorophores with the similar spectral properties (Alexa Fluor 488®, Rhodamine Green®, Oregon Green 488®, and Fluorescein) in aqueous solutions irradiated with 488 nm light (3 W/cm^2)

[5] = Ground state depletion (GSDIM) pump-probe measurements in PVA matrix; format: physicochemical; conditions: for λem / λex: PVA matrix table; for Γfl, remaining fluorescence after 5 measurement cycles / Rfl, t=0, residual fluorescence after the pump-pulse: PVA matrix; for Γfl, remaining fluorescence after 5 measurement cycles: at one spot with the given power density; for Rfl, t=0, residual fluorescence after the pump-pulse: pump-pulse power density per dye 14-110 kW/cm^2
Description: In this method, “off” and “on” switching of the fluorescence is achieved by transiently shelving the fluorophores into a meta-stable dark state. Upon the return of only a few isolated single molecules to the fluorescent singlet state, positions of these single light emitting spots can be imaged on a camera and localized with high precision. Upon repeating this procedure and acquiring many pictures, a super-resolution image can be reconstructed from the localized positions. A prerequisite of this method is that >70% of the ensemble of the applied fluorescent dyes can be shelved into a dark state at a time (to ensure the detection of isolated fluorescent spots at a time in a densely labeled sample) and that the fluorophores are bright enough, i.e., that they emit enough photons while being in the singlet on-state (to ensure high precision of localization).
Switching off of the laser leads to a recovery of the fluorescence ensemble within a characteristic recovery time of 150-450 ms (Table 5), indicating the shelving into a metastable dark state. The measurements were performed in a pump-probe mode, i.e., the residual level of fluorescence was probed with I<100 W/cm^2 for 0.5 ms after strong irradiation for 10 ms with the given laser intensity in Table 5.
Furthermore, recovery of the fluorescence can be accelerated by addition of UV light, which leads to an optically-induced depopulation of the dark states. Already 2-3 kW/cm^2 of 375 nm light recovers the fluorescence within an irradiation period of 0.5 ms. […] The accelerated recovery is important for samples with low density of labels, where the addition of UV light and thus acceleration of the return from a dark state helps to accelerate image acquisition. Photostabilities of the studied fluorescent dyes under the GSDIM conditions are different: 15-50 pump-probe cycles with a pump intensity of 14-110 kW/cm^2 bleach 30-95% of the whole ensemble.

[6] = design: ε × 10^−4: unit not given beside the values; conditions: cited from earlier work
[7] = Fluorescence correlation spectroscopy (FCS) in aqueous solutions; format: physicochemical; conditions: aqueous solution, intensity range 0.1-2.0 MW/cm^2
Description: FIG. 10. FCS curves obtained from Rh110-CO2 (left plot) and compound 17 (right plot), at low (0.1 MW/cm^2) and high (2 MW/cm^2) excitation intensity (dots: experimental data; lines: best fits).
In combination with modern highly sensitive detection technologies recently developed, the observation of a single or a few molecules has become readily available. Several techniques based on these measurements [such as the fluorescence fluctuation spectroscopy and fluorescence correlation spectroscopy (FCS)] advantageously reveal molecular properties otherwise hidden by averaging the ensemble. A common requirement for experiments involving a few or single molecules is the use of fluorescent dyes with high photostability especially at high excitation intensities of >100 kW/cm^2. For biological applications the use of water as a solvent is almost imperative. Low solubility in water is often associated with a high bleaching ratio, or lower fluorescence quantum yield in aqueous medium compared with that in organic solvents. […]
The excitation intensity of 115 kW/cm^2 (a value normally used in routinely FCS measurements) and at an excitation intensity of about an order of magnitude higher (2 MW/cm^2) have been used. […] An increase in the fraction of molecules in the triplet state can also be detected. […]

[8] = solvent not stated, spectra pH-dependent at pH < 5

ABSORPTION λMAX ([2]; aqueous buffer at pH 7)	EMISSION λMAX ([2]; aqueous buffer at pH 7)	ΦFL ([2]; aqueous buffer at pH 7)	τFL ([2]; aqueous buffer at pH 7) [ns]	ABSORPTION ε ([2]; methanol) [M⁻¹ cm⁻¹]	ABSORPTION λMAX ([2]; methanol)	EMISSION λMAX ([2]; methanol)	λem [5] [nm]	λex [5] [nm]	Γfl, remaining fluorescence after 5 measurement cycles [5] [%]	Rfl, t=0, residual fluorescence after the pump-pulse [5] [%]	Compound	Structures stained in living cells ([3]; 500 μg dye/ml)	also measured
											CCN=c1cc2oc3cc(NCC)c(C)cc3c(-c3ccccc3C(=O)OCC)c-2cc1C.Cl [rhodamine 6G]		Photobleaching quantum yields [1]: 12 ×10^−7
499 nm	520 nm	0.88	3.8	87000	507 nm	524 nm					O=C(O)c1ccccc1-c1c2ccc(=NCC(F)(F)F)c(S(=O)(=O)O)c-2oc2c(S(=O)(=O)O)c(NCC(F)(F)F)ccc12 [Compound 16, 4,5-Disulfo-N,N′-bis(2,2,2-trifluoroethyl)rhodamine]	Dim cellular stain with brightly	Structures stained in living cells ([3]; 50 μg dye/ml): Dim cytoplasmatic stain with bright; change in emission on irradiation [4]: without any significant changes in their emission
				87000	512^b nm	534^b nm	534	512	90	8	COC(=O)CCN(C)C(=O)c1ccccc1-c1c2ccc(=NCC(F)(F)F)cc-2oc2cc(NCC(F)(F)F)ccc12 [Compound 44-Me]	Cytoplasmatic stain visible.	
											Cl.N=c1ccc2c(-c3ccccc3C(=O)O)c3ccc(N)cc3oc-2c1 [Compound 1, rhodamine 110]		Φfl ([6]; basic EtOH): 0.92; λem ([6]; basic EtOH): 524 nm; ε × 10^−4 ([6]; water, pH = 7): 8.3; λem ([6]; water, pH = 7): 520** nm; λmax ([6]; water, pH = 7): 496 nm
											COC(=O)c1ccccc1-c1c2ccc(N)cc2[o+]c2cc(N)ccc12 [methyl ester of rhodamine 110]		Photobleaching quantum yields [1]: 6.6 ×10^−7
											CN(C)c1ccc2c(-c3ccccc3C(=O)[O-])c3ccc(N(C)C)cc3[o+]c2c1 [tetramethyl rhodamine]		stability relative to rhodamine 6G ([1]; high light intensities (up to 10^7 W/cm^2)): 4-5 times; Photobleaching quantum yields [1]: 3.3 ×10^−7
											O=C(O)CSc1c(F)c(F)c(C(=O)O)c(-c2c3cc(F)c(=O)cc-3oc3cc(O)c(F)cc23)c1F [Compound 9]		bathochromic shift ([6]; compared with compounds 7 and 8): ca. 10 nm; ε × 10^−4 [6, 8]: 8.6; λem [6, 8]: 526 nm; λmax [6, 8]: 506 nm
510 nm	531 nm	0.86	4.2		512 nm	534 nm					CN(CCC(=O)O)C(=O)c1ccccc1-c1c2ccc(=NCC(F)(F)F)cc-2oc2cc(NCC(F)(F)F)ccc12.Cl [Compound 14a]	Mitochondrial stain visible.	ABSORPTION ε ([2]; aqueous buffer at pH 7): 57000 M⁻¹ cm⁻¹; initial emission intensity retained ([4]; after two hours of irradiation, 488 nm, 3 W/cm^2): about 90%
											carboxy rhodamine 110 [Rh110-CO2, reference compound]		change of diffusion time with excitation intensity (bleaching) [7]: shortening of the apparent diffusion characteristic time
501 nm	524^a, 524^b nm	0.96	3.9	86000	511 nm	524^a, 524^b nm	524	501	40	25	O=C(O)c1ccc2c(c1)C(=O)OC21c2ccc(NCC(F)(F)F)c(S(=O)(=O)O)c2Oc2c1ccc(NCC(F)(F)F)c2S(=O)(=O)O [Compound 17, 5′-Carboxy-4,5-disulfo-N,N′-bis(2,2,2-trifluoroethyl)-rhodamine]	Bright background staining visible.	change of diffusion time with excitation intensity (bleaching) [7]: no significant change in the diffusion time; Structures stained in living cells ([3]; 50 μg dye/ml): Dim cytoplasmatic stain with dots; change in emission on irradiation [4]: without any significant changes in their emission
506^a nm	531^a nm	0.66	3.2				531	506	50	25	2,7-Difluoro-N,N′-bis(2,2,2-trifluoroethyl)-4,5-disulforhodamine [Compound 20]	Nearly no stain visible.	ABSORPTION ε ([2]; aqueous buffer at pH 7): 54000 M⁻¹ cm⁻¹; Structures stained in living cells ([3]; 50 μg dye/ml): Dim cytoplasmatic stain with dots
											5(6)-carboxyfluorescein [Compound 7]		ε × 10^−4 ([6]; H2O, pH = 9): 7.8^4*; λem ([6]; H2O, pH = 9): 517^4* nm; λmax ([6]; H2O, pH = 9): 492^4* nm
488 nm	512 nm	0.89	4.0	42000	498 nm	514 nm	512	488	20	8	Nc1c(F)cc2c(c1S(=O)(=O)O)Oc1c(cc(F)c(N)c1S(=O)(=O)O)C21OC(=O)c2ccccc21 [Compound 12, 2,7-Difluoro-4,5-disulforhodamine]	Nearly no stain visible.	
											5(6)-carboxyrhodamine 110 [Compound 2]		ε × 10^−4 ([6]; MeOH): 7.8; λem ([6]; MeOH): 532 nm; λmax ([6]; MeOH): 504 nm
512 nm	530 nm	0.86	4.1	74000	517 nm	536 nm	530	512	35	25	CN(CCC(=O)O)C(=O)c1ccccc1-c1c2ccc(=NCC(F)(F)F)c(S(=O)(=O)O)c-2oc2c(S(=O)(=O)O)c(NCC(F)(F)F)ccc12 [Compound 16a]	Cellular stain visible; bright	change in emission on irradiation [4]: without any significant changes in their emission

From patent US8735444B2, “Fluorinated rhodamines as photostable fluorescent dyes for labelling and imaging techniques” (Max-Planck-Gesellschaft zur Foerderung der Wissenschaften …, priority 2009, dated 2014)
